Source: US4094966A, “Iodobenzene derivatives and X-ray contrast media containing the same” (priority 1974, dated 1978)

Legend:
[1] = Viscosity of 28% methylglucamine salt solutions at 37° C; assay type: physicochemical; details: 28% iodine methylglucamine salt solution
Description: Pharmaceutical grade injectable solutions are prepared in the form of the methylgucamine or sodium salt, containing 28, 38 or 48 g iodine per 100 ml (solutions said to contain 28%, 38% and 48% iodine).
It is apparent, from said results, that, contrary to expectations, the compounds of the formula (I) have relatively low solution viscosities.

[2] = Osmolality determination (FISKE osmometer); assay type: physicochemical; details: solutions containing 28% iodine; methylglucamine salts; extrapolation from successive dilutions
Description: Osmolality is determined by extrapolation of the values obtained on successive dilutions of solutions containing 28% or 38% iodine.
Osmolality readings are made with a FISKE Model 230/D/330 D osmometer. This apparatus indicates this measurement as milliosmoles per kg of solution. Its operation is based on the principles of cryoscopy. The determinations were made with solutions containing 28% iodine.

[3] = tested on: mice; assay: Acute toxicity determination, intravenous toxicity in mice; assay type: in vivo, mice (Swiss origin, IOPS mice of OFI strain); details: 24 hours
Description: Intravenous toxicity determination was effected in Swiss origin, IOPS mice of OFI strain.
Each dosage level was injected to a lot of 10 mice comprising 5 male and 5 female mice.
Injections were made manually, in the caudal vein, at a rate of 2 ml/minute.
Death rate during the 24 hours after injection was recorded.

[4] = tested on: femoral artery; assay: Effect on the femoral rate of flow (peripheral vasodilatation); assay type: in vivo, mongrels
Description: This test was carried out in Nembutal-anesthetized male or female 7-12 mongrels.
Nembutal was used at a dosage of 30 mg/kg, with Vetranquil pre-medication, (overall intravenous injection of 2.5 mg), respiration was spontaneous.
Rate of flow variations were recorded at the level of the right or left fermoral artery, by means of a Statham electromagnetic sensor.
The injections were made in a collateral of the fermoral artery, downstream of the sensor, by means of a catheter mounted by the retrograde route, so as not to perturb the blood flow.
The injections were made under a constant volume of 1.5 ml administered within 3-5 seconds.
The same volume of an iostonic sodium chloride solution was also injected.

[5] = Biliary clearance test in cats; assay type: in vivo; set-up: scale not given here
Description: This test was conducted in male or female adult cats weighing 3-4 kg.
The test material was injected intravenously, at a dosage of 0.10 g/kg iodine at the level of the internal saphenous vein. Clearance of the material was monitored by X-ray control.
X-ray pictures visualizing the gall bladder and the bladder were taken at the following times: 30 minutes, 1 hour, 2 hours, 3 hours, 4 hours, 5 hours, 6 hours.

[6] = tested on: rats; assay: Toxicological investigation in rats on intracisternal injection (Melartin's method); assay type: in vivo
Excerpt: The results of a toxicological investigation effected in rats on intracisternal injection, according to E. Melartin's method (InvestigativeRadiology 1970 5, 1, 13-21) are also set forth below.

[7] = 1.5 ml into collateral of femoral artery, 28% I, Mgl salt
[8] = i.v., 0.10 g I/kg, 28% I, Mgl salt
[9] = 1.5 ml into collateral of femoral artery, 38% I, Na salt

SMILES | Viscosity [1] | Osmolality [2] | Acute toxicity in mice, i.v. ([3]; 28% I, Mgl salt) | Peripheral vasodilatation, femoral rate of flow [4, 7] | Biliary clearance in cat, i.v. [5, 8] | also measured
CNC(=O)c1c(I)c(C(=O)NCC(=O)Nc2c(I)c(C(=O)O)c(I)c(C(=O)NCCO)c2I)c(I)c(N(C)C(C)=O)c1I [Compound 1, 2,4,6-triiodo-3-N-hydroxyethylcarbamyl-5-(2,4,6-triiodo-3-N-methylcarbamyl-5-N-methyl-N-acetylaminobenzoyl)glycylamino-benzoic acid] | 5.4 cps | 510 mosm/kg |  |  |  | Acute toxicity in mice, i.v. ([3]; 38% I, Mgl salt): 11.5 grams I/kg; Peripheral vasodilatation, femoral rate of flow ([4]; in vivo): +; Biliary clearance in cat, i.v. ([5]; in vivo, iv): ±
CNC(=O)c1c(I)c(NC(=O)CCCNC(=O)c2c(I)c(C(=O)NC)c(I)c(N(C)C(C)=O)c2I)c(I)c(C(=O)O)c1I [Compound 2, 2,4,6-triiodo-3-N-methylcarbamyl-5-(2,4,6-triiodo-3-N-methylcarbamyl-5-N-methylacetamido-benzoyl)-γ-aminobutyrylamino-benzoic acid] | 6.56 cps | 475 mosm/kg | 9.5 grams I/kg | + | 0 | 
CNC(=O)c1c(I)c(NC(C)=O)c(I)c(C(=O)NCC(=O)Nc2c(I)c(C(=O)O)c(I)c(C(=O)NCCO)c2I)c1I [Compound 3, 2,4,6-triiodo-3-N-hydroxyethylcarbamyl-5-(2,4,6-triiodo-3-N-methylcarbamyl-5-acetamidio-benzoyl)-glycylaminobenzoic acid] | 5.72 cps | 550 mosm/kg | 9-10 grams I/kg | + |  | 
CC(=O)Nc1c(I)c(C(=O)NCC(=O)Nc2c(I)c(C(=O)O)c(I)c(C(=O)NCCO)c2I)c(I)c(N(C)C(C)=O)c1I [Compound 6, 2,4,6-triiodo-3-N-hydroxyethylcarbamyl-5-(2,4,6-triiodo-3-acetamido-5-N-methylacetamido-benzoyl)-glycylamino-benzoic acid] | 5.2 cps | 480 mosm/kg | 10 grams I/kg | + | 0 | 
CNC(=O)c1c(I)c(NC(=O)CNC(=O)c2c(I)c(C(=O)NCCO)c(I)c(N(C)C(C)=O)c2I)c(I)c(C(=O)O)c1I [Compound 8, 2,4,6-triiodo-3-N-methylcarbamyl-5-(2,4,6-triiodo-3-N-hydroxyethylcarbamyl-5-N-methylacetamido-benzoyl)glycyl amino-benzoic acid] | 5.5 cps | 535 mosm/kg | 12 grams I/kg | ++ | ± | 
CNC(=O)c1c(I)c(NC(=O)CNC(=O)c2c(I)c(C(=O)NC)c(I)c(N(C)C(C)=O)c2I)c(I)c(C(=O)O)c1I [Compound 9, 2,4,6-triiodo-3-N-methylcarbamyl-5-(2,4,6-triiodo-3-N-methylcarbamyl-5-N-methylacetamido-benzoyl)-glycylamino-benzoic acid] | 5.8 cps | 440 mosm/kg |  |  |  | Acute toxicity in mice, i.v. ([3]; 38% I, Mgl salt): 11.5 grams I/kg; Peripheral vasodilatation, femoral rate of flow ([4]; 1.5 ml into collateral of femoral artery, 38% I, Mgl salt): +; Biliary clearance in cat, i.v. ([5]; i.v., 0.10 g I/kg, 38% I, Mgl salt): ++
CNC(=O)c1c(I)c(NC(C)=O)c(I)c(C(=O)NCC(=O)N(C)c2c(I)c(C(=O)O)c(I)c(C(=O)NC)c2I)c1I [Compound 14, 2,4,6-triiodo-3-N-methylcarbamyl-5-(2,4,6-triiodo-3-N-methylcarbamyl-5-acetamido-benzoyl)-glycyl-N-methylamino-benzoic acid] | 5.2 cps | 600 mosm/kg | 12 grams I/kg | + | + | 
CNC(=O)c1c(I)c(C(=O)NCCCC(=O)Nc2c(I)c(C(=O)O)c(I)c(C(=O)NCCO)c2I)c(I)c(N(C)C(C)=O)c1I [Compound 24, 2,4,6-triiodo-3-N-hydroxyethylcarbamyl5-(2,4,6-triiodo-3-N-methylcarbamyl-5-N-methylacetamidobenzoyl)-ε-amino-butyrylamino-benzoic acid] | 6 cps | 575 mosm/kg | 8.5 grams I/kg | + | 0 | 
CNC(=O)c1c(I)c(NC(C)=O)c(I)c(C(=O)NCC(=O)Nc2c(I)c(C(=O)O)c(I)c(N(C)C(C)=O)c2I)c1I [Compound 26, 12,4,6-triiodo-3-N-methylacetamido-5-(2,4,6-triiodo-3-N-methylcarbamyl-5-acetamido-benzoyl)-glycylamino-benzoic acid] |  | 500 mosm/kg |  |  |  | Acute toxicity in mice, i.v. ([3]; 38% I, Na salt): 13 grams I/kg; Peripheral vasodilatation, femoral rate of flow [4, 9]: ++; Biliary clearance in cat, i.v. ([5]; i.v., 0.10 g I/kg, 38% I, Na salt): 0
CC(=O)N(C)c1c(I)c(NC(=O)CN(CC(=O)Nc2c(I)c(C(=O)NCCO)c(I)c(C(=O)NCCO)c2I)CC(=O)Nc2c(I)c(C(=O)NCCO)c(I)c(C(=O)NCCO)c2I)c(I)c(C(=O)O)c1I [Compound 32, 2,4,6-triiodo-3-N-methylacetamido-5-bis{[2,4,6-triiodo-3,5-bis(N-hydroxyethylcarbamyl)-phenyl]carbamylmethyl}aminoacetamido-benzoic acid] |  | 270 mosm/kg | 15 grams I/kg | + | 0 | Death rate ([6]; 50 mg I per rat): 0/10
CNC(=O)c1c(I)c(C(=O)O)c(I)c(N(C)C(=O)CN(CC(=O)Nc2c(I)c(C(=O)NCCO)c(I)c(C(=O)NCCO)c2I)CC(=O)Nc2c(I)c(C(=O)NCCO)c(I)c(C(=O)NCCO)c2I)c1I [Compound 33, 2,4,6-triiodo-3-N-methylcarbamyl-5-bis{[2,4,6-triiodo-3,5,-bis(N-hydroxyethylcarbamyl)-phenyl]carbamylmethyl}amino-N-methylacetamido-benzoic acid] |  | 370 mosm/kg |  |  |  | Acute toxicity in mice, i.v. ([3]; 38% I, Na salt): 17 grams I/kg; Peripheral vasodilatation, femoral rate of flow [4, 9]: ++; Death rate ([6]; 56 mg I per rat): 0/10
CNC(=O)c1c(I)c(C(=O)NCCCC(=O)N(C)c2c(I)c(C(=O)O)c(I)c(C(=O)NC)c2I)c(I)c(N(C)C(C)=O)c1I [Compound 37, 2,4,6-triiodo-3-N-methylcarbamyl-5-(2,4,6-triiodo-3-N-methylcarbamyl-5-N-methylacetamido-benzoyl)-γ-aminobutyryl-N-methylamino-benzoic acid] |  | 730 mosm/kg | < 6 grams I/kg | ++++ | ++ | 
CNC(=O)c1c(I)c(NC(C)=O)c(I)c(C(=O)O)c1I [a, 2,4,6-Triiodo-3-N-methylcarbamyl-5-acetamido-benzoic acid, reference compound] |  | 1410 mosm/kg | 5.4 grams I/kg | +++ |  | Biliary clearance in cat, i.v. ([5]; in vivo, iv): 0
CC(=O)Nc1c(I)c(C(=O)O)c(I)c(C(=O)NCCO)c1I [b, 2,4,6-Triiodo-3-N-hydroxyethylcarbamyl-5-acetamido-benzoic acid, reference compound] |  | 1390 mosm/kg |  |  |  | Acute toxicity in mice, i.v. ([3]; 30% I, Mgl salt): 5.6 grams I/kg; Peripheral vasodilatation, femoral rate of flow ([4]; 1.5 ml into collateral of femoral artery, 30% I, Mgl salt): +++; Biliary clearance in cat, i.v. ([5]; i.v., 0.10 g I/kg, 30% I, Mgl salt): 0
CNC(=O)c1c(I)c(NC(=O)CCCCC(=O)Nc2c(I)c(C(=O)O)c(I)c(C(=O)NC)c2I)c(I)c(C(=O)O)c1I [c, 5,5'-Adipoyldiimido-bis-(2,4,6-triiodo-N-methylisophthalamic)acid, reference compound] |  | 950 mosm/kg | 6.2 grams I/kg | ++ | 0 | Death rate ([6]; 17 mg I per rat): 9/10
